For orientation: IC50 means the concentration needed to halve the response being measured. Read a high IC50 as weaker potency in that assay.

In one test the target is mouse 11β-HSD1 (Mus musculus, UniProt P50172). Nature of the test: scintillation proximity assay (SPA), microsomes of HEK-293 cells transfected with mouse 11β-HSD1. As to conditions: for Mouse SI (selectivity index): SI = IC50(HSD2)/IC50(HSD1); for inhibition at 1 µM: read-out: Inhibitory ratio m-HSD1, at 1.0 μM, averages of three determinations. (In a scintillation proximity assay essentially only radioactivity close to the scintillant gives light.)

Another test deals with T1, mouse 11β-HSD2 (Mus musculus, UniProt P51661).
T1 sequence (P51661 1-386): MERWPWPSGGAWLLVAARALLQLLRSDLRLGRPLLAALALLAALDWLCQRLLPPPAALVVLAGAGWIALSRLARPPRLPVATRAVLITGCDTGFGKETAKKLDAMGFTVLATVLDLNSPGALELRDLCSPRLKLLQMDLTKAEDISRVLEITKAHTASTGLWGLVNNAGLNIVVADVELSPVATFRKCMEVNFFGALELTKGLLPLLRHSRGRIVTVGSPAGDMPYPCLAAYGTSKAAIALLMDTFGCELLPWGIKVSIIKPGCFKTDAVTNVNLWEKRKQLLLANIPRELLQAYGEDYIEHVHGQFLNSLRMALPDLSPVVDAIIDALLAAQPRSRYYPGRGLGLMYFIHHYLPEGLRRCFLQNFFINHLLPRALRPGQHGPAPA
Nature of the test: scintillation proximity assay (SPA), microsomes of HEK-293 cells transfected with mouse 11β-HSD2.

The next test deals with human 11β-HSD1 (Homo sapiens, UniProt P28845). The test can be described thus: scintillation proximity assay (SPA), microsomes of HEK-293 cells transfected with human 11β-HSD1. The note with it: for inhibition at 1 µM: read-out: Inhibitory ratio h-HSD1, at 1.0 μM, averages of three determinations; for Human SI (selectivity index): Table 3, SI = IC50(HSD2)/IC50(HSD1).
For a further test, the target named is T2, human 11β-HSD2 (Homo sapiens, UniProt P80365).
T2 sequence (P80365 1-405): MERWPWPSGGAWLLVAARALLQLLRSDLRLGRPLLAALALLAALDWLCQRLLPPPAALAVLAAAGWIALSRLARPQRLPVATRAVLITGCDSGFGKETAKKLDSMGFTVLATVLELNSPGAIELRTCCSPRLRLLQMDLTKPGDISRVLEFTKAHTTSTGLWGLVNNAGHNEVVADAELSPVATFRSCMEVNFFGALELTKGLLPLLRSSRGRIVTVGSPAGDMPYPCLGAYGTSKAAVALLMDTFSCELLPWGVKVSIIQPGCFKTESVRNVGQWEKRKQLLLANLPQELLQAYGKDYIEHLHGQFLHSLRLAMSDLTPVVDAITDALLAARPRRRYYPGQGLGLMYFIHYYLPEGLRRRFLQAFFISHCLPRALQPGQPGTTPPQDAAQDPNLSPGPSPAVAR
Nature of the test: scintillation proximity assay (SPA), microsomes of HEK-293 cells transfected with human 11β-HSD2.

Chain of human 11β-HSD1 (P28845 whole entry): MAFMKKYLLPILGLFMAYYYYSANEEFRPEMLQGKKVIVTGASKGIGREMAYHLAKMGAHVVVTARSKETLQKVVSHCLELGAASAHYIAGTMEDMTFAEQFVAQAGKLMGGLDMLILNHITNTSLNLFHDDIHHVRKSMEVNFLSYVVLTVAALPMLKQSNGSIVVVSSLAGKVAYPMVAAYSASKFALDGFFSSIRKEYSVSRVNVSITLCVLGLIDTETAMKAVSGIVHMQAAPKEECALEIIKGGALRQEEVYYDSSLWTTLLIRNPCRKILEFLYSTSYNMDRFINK
Chain of mouse 11β-HSD1 (P50172 whole entry): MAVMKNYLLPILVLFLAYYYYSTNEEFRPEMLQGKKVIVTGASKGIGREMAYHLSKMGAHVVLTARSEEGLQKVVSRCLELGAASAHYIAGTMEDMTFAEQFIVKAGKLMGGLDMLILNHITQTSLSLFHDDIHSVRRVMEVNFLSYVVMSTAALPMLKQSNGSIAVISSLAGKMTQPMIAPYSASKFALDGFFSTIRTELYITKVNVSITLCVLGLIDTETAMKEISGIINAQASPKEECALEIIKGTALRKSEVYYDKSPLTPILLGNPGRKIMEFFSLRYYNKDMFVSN
Method for human 11β-HSD1: (§1) With diverse tanshinones in hand, inhibition of human and mouse 11β-HSD1 enzymatic potency was measured by scintillation proximity assay (SPA) using microsomes containing 11β-HSD1 [46, 47]. Results are reported as the average of two or three independent experiments at each concentration.
(§2) The SPA was used to screen for inhibitors of 11β-HSDs [48], with the microsome fractions prepared from the HEK-293 cells stably transfected with either human or mouse 11β-HSD1 or 11β-HSD2 as the enzyme source. […] Reactions were initiated by the addition of 11β-HSD1 or 11β-HSD2, enzyme. […] The plates were incubated under plastic film on an orbital shaker for 120 min at room temperature before counting. The amount of [^3H]-cortisol generated in 11β-HSD1 enzyme reaction or remaining from the 11β-HSD2 enzyme reaction was captured by the beads and determined in a microplate liquid scintillation counter. The % inhibition was calculated relative to a non-inhibited control. Data were obtained from two or three independent experiments. IC50 values were calculated from concentration–response curves by a non-linear regression analysis using Prism Version 6.
Method for human 11β-HSD2: as §1, §2
Method for mouse 11β-HSD1: as §1, §2
Method for mouse 11β-HSD2: as §1, §2

With `Cc1coc2c1C(=O)C(=O)c1c-2ccc2c1[C@H](O)[C@@H](O)CC2(C)C` (racemic) [Compound 18a], the IC50 was 0.138 ± 0.0108 µM at mouse 11β-HSD1 and > 100 µM on mouse 11β-HSD2. Also, the “Mouse SI (selectivity index)” value on mouse 11β-HSD1 (Table 3) is on record as > 724.1. Further, the values for the inhibition at 1 µM at mouse 11β-HSD1 and at human 11β-HSD1 were 89 ± 3.5% and 31.1 ± 0.2%, respectively.

Take `C[C@H]1COC2=C1C(=O)C(=O)c1c2ccc2c1CCCC2(C)C` [Compound 2, cryptotanshinone]: the IC50 against mouse 11β-HSD1 is 0.0418 ± 0.0087 µM; against human 11β-HSD2 it was 12.1 µM; against mouse 11β-HSD2, > 1000 µM; against human 11β-HSD1, 0.0731 ± 0.0313 µM. Also, the “Mouse SI (selectivity index)” value at mouse 11β-HSD1 (Table 1) was > 23,923. Further, the inhibition at 1 µM on mouse 11β-HSD1 amounted to 89.9 ± 3.7%; on human 11β-HSD1, 91.3 ± 0.1%.

With `Cc1coc2c1c(=O)oc1c3ccccc3ccc21` [Compound 9], the inhibition at 1 µM at mouse 11β-HSD1 was 8.4%; on human 11β-HSD1, 14 ± 1.3%.

As for `Cc1coc2c1C(=O)C(=O)c1ccccc1-2` [Compound 10], the IC50 against mouse 11β-HSD1 was 0.0665 ± 0.0056 µM; at human 11β-HSD2, > 10 µM; against mouse 11β-HSD2, > 10 µM; against human 11β-HSD1 it was 0.121 µM. The “Mouse SI (selectivity index)” value on mouse 11β-HSD1 (Table 3) is recorded as > 150.3. In addition, the values for the inhibition at 1 µM at mouse 11β-HSD1 and at human 11β-HSD1 were 89.9 ± 0.9% and 87.6 ± 2.2%, respectively. Further, at human 11β-HSD1, the “Human SI (selectivity index)” value was > 82.5.

Regarding `Cc1coc2c1C(=O)C(=O)C=C2` [Compound 11], the inhibition at 1 µM at mouse 11β-HSD1 is 33 ± 2.3%; on human 11β-HSD1, 9.9 ± 1.1%.

As for `Cc1coc2ccc(O)cc12` [Compound 12], the inhibition at 1 µM on mouse 11β-HSD1 is 12.4 ± 1.4%; at human 11β-HSD1, 10 ± 2.3%.

As for `Cc1coc2c1C(=O)C(=O)c1c-2ccc2c1CCC(O)C2(C)C` (centres unmarked) [Compound 15], the results for the half-maximal inhibitory concentration (IC50) on mouse 11β-HSD1 and on mouse 11β-HSD2 were 0.0729 ± 0.0093 µM and > 100 µM, respectively. The “Mouse SI (selectivity index)” value at mouse 11β-HSD1 (Table 3) is on record as > 1371.7. The inhibition at 1 µM at mouse 11β-HSD1 came to 85.3 ± 0.2%; on human 11β-HSD1, 40.6 ± 1.5%.

`CC(=O)OC1CCc2c(ccc3c2C(=O)C(=O)c2c(C)coc2-3)C1(C)C` (centres unmarked) [Compound 16]: the IC50 on mouse 11β-HSD1 is 0.0101 ± 0.0008 µM; on human 11β-HSD2, 7.3 ± 2.2 µM; against mouse 11β-HSD2, > 100 µM; against human 11β-HSD1 it was 0.89 ± 0.1 µM. The “Mouse SI (selectivity index)” value on mouse 11β-HSD1 (Table 3) is recorded as > 9900.9. Further, the values for the inhibition at 1 µM at mouse 11β-HSD1 and on human 11β-HSD1 were 89.3 ± 1.5% and 50.3 ± 2.7%, respectively. Besides, on human 11β-HSD1, the “Human SI (selectivity index)” value came out at 8.2.

Take `Cc1coc2c1C(=O)C(=O)c1c-2ccc2c1C(=O)C(O)CC2(C)C` (centres unmarked) [Compound 18b]: the inhibition at 1 µM on mouse 11β-HSD1 is 49.4 ± 1.6%; at human 11β-HSD1, 43.2 ± 1.7%.

On to `Cc1coc2c1C(=O)C(=O)c1c-2ccc2c1C[C@@H](O)CC2(C)C` [Compound 19], for which the IC50 against mouse 11β-HSD1 was 0.0484 ± 0.0066 µM; on human 11β-HSD2, 2.7 ± 0.5 µM; at mouse 11β-HSD2 it was > 10 µM; against human 11β-HSD1, 0.32 µM. For the same compound, the “Mouse SI (selectivity index)” value at mouse 11β-HSD1 (Table 3) is > 206.6. Further, the results for the inhibition at 1 µM on mouse 11β-HSD1 and on human 11β-HSD1 were 86.7 ± 2.1% and 63.9 ± 2.7%, respectively. On human 11β-HSD1, the “Human SI (selectivity index)” value is recorded as 8.3.

In the case of `Cc1coc2c1C(=O)C(=O)c1c-2ccc2c1C(=O)C(O)=CC2(C)C` [Compound 20], the IC50 against mouse 11β-HSD1 is 0.0966 ± 0.0165 µM; against mouse 11β-HSD2 it was > 10 µM. Further, the “Mouse SI (selectivity index)” value at mouse 11β-HSD1 (Table 3) was > 103.6. The inhibition at 1 µM turned out to be 81.8 ± 1.5% at mouse 11β-HSD1 and 38.5 ± 2.2% on human 11β-HSD1.

With `CC(=O)Oc1c2c(c3ccc4c(c3c1OC(C)=O)CCCC4(C)C)OC[C@@H]2C` [Compound 21], the inhibition at 1 µM at mouse 11β-HSD1 was determined as 28.6 ± 0.3%; on human 11β-HSD1, 5.1 ± 1.8%.

Regarding `Cc1c[nH]c2c1C(=O)C(=O)c1c-2ccc2c1CCCC2(C)C` [Compound 24], the inhibition at 1 µM at mouse 11β-HSD1 amounted to 56 ± 2.2%; at human 11β-HSD1, 33.6 ± 0.8%.

Consider `C[C@@H](CO)C1=C(N)c2ccc3c(c2C(=O)C1=O)CCCC3(C)C` [Compound 25], for which the IC50 was 0.095 ± 0.0178 µM against mouse 11β-HSD1 and > 10 µM against mouse 11β-HSD2. Further, the “Mouse SI (selectivity index)” value at mouse 11β-HSD1 (Table 3) is > 105.3. The figures for the inhibition at 1 µM on mouse 11β-HSD1 and on human 11β-HSD1 were 85.1 ± 0.6% and 35.5 ± 2.8%, respectively.

As to `Cc1coc2c3ccc4c(c3c3[nH]c(-c5ccc(O)cc5)nc3c12)CCCC4(C)C` [Compound 26], the inhibition at 1 µM on mouse 11β-HSD1 is 19.2 ± 5.3%; at human 11β-HSD1 it was 12.8 ± 0.8%.

For the compound `Cc1c(-c2ccccc2)oc2c1C(=O)C(=O)c1c-2ccc2c1CCCC2(C)C` [Compound 27a], the inhibition at 1 µM was determined as 25.9 ± 0.3% at mouse 11β-HSD1 and 33.9 ± 1.8% on human 11β-HSD1.

As for `Cc1c(-c2ccc(F)cc2)oc2c1C(=O)C(=O)c1c-2ccc2c1CCCC2(C)C` [Compound 27b], the inhibition at 1 µM at mouse 11β-HSD1 was 5.6 ± 0.5%; at human 11β-HSD1, 3.8 ± 1.5%.

For the compound `Cc1c(-c2ccncc2)oc2c1C(=O)C(=O)c1c-2ccc2c1CCCC2(C)C` [Compound 27c], the IC50 at mouse 11β-HSD1 was 0.0069 ± 0.0012 µM; against human 11β-HSD2, 6.1 ± 0.7 µM; on mouse 11β-HSD2, > 10 µM; on human 11β-HSD1, 0.126 ± 0.0005 µM. Besides, at mouse 11β-HSD1 (Table 3), the “Mouse SI (selectivity index)” value was > 1451.4. Besides, the inhibition at 1 µM at mouse 11β-HSD1 came to 70.6 ± 0.5%; on human 11β-HSD1 it was 82.5 ± 0.9%. At human 11β-HSD1, the “Human SI (selectivity index)” value is listed as 48.4.

Regarding `Cc1c(-c2ccsc2)oc2c1C(=O)C(=O)c1c-2ccc2c1CCCC2(C)C` [Compound 27d], the inhibition at 1 µM was determined as 37.4 ± 2.8% at mouse 11β-HSD1 and 14.5 ± 1.4% on human 11β-HSD1.

On to `Cc1c(-c2ccnc3ccccc23)oc2c1C(=O)C(=O)c1c-2ccc2c1CCCC2(C)C` [Compound 27e], for which the inhibition at 1 µM stood at 42.9 ± 3.7% on mouse 11β-HSD1 and 15.1 ± 0.8% on human 11β-HSD1.

Regarding `Cc1c(CN(C)C)oc2c1C(=O)C(=O)c1c-2ccc2c1CCCC2(C)C` [Compound 29a], the IC50 is 0.0171 ± 0.0009 µM on mouse 11β-HSD1, 5.6 ± 0.9 µM on human 11β-HSD2, > 100 µM against mouse 11β-HSD2 and 0.038 ± 0.0004 µM on human 11β-HSD1. In addition, the “Mouse SI (selectivity index)” value on mouse 11β-HSD1 (Table 3) is listed as > 5813.9. Further, the values for the inhibition at 1 µM at mouse 11β-HSD1 and at human 11β-HSD1 were 96.6 ± 0.6% and 92.1 ± 2.4%, respectively. Also, on human 11β-HSD1, the “Human SI (selectivity index)” value is 147.9.

For `Cc1c(CN2CCOCC2)oc2c1C(=O)C(=O)c1c-2ccc2c1CCCC2(C)C` [Compound 29c], the inhibition at 1 µM at mouse 11β-HSD1 stood at 6.7 ± 4.3%; on human 11β-HSD1, 45.2 ± 0.7%.

For the compound `CC1(C)CCCc2c1ccc1c2C(=O)C(=O)c2c(CNc3ccccc3)coc2-1` [Compound 31a], the IC50 at mouse 11β-HSD1 was 0.0566 ± 0.0007 µM; at mouse 11β-HSD2, > 10 µM; at human 11β-HSD1 it was > 1 µM. Also, the “Mouse SI (selectivity index)” value on mouse 11β-HSD1 (Table 3) was > 176.4. Also, the inhibition at 1 µM was found to be 88.9 ± 3.5% on mouse 11β-HSD1 and 32.6 ± 5.8% at human 11β-HSD1.

Regarding `CC1(C)CCCc2c1ccc1c2C(=O)C(=O)c2c(CN3CCOCC3)coc2-1` [Compound 31b], the inhibition at 1 µM came out at 37 ± 3.2% on mouse 11β-HSD1 and 16.9 ± 3.7% at human 11β-HSD1.

Turning to `CC1(C)CCCc2c1ccc1c2C(=O)C(=O)c2c-1oc(Cl)c2CO` [Compound 32], the IC50 on mouse 11β-HSD1 was 0.328 ± 0.0202 µM; on mouse 11β-HSD2, > 10 µM; at human 11β-HSD1, > 1 µM. For the same compound, the “Mouse SI (selectivity index)” value on mouse 11β-HSD1 (Table 3) is given as > 30.5. The inhibition at 1 µM on mouse 11β-HSD1 came to 70.1 ± 1.1%; on human 11β-HSD1, 21.4 ± 1.8%.

Regarding `CC(=O)OC1CCc2c(ccc3c2C(=O)C(=O)c2c(CO)coc2-3)C1(C)C` (centres unmarked) [Compound 35], the IC50 is 0.0219 ± 0.0079 µM at mouse 11β-HSD1 and > 100 µM against mouse 11β-HSD2. Besides, the “Mouse SI (selectivity index)” value on mouse 11β-HSD1 (Table 3) was > 4575.5. Moreover, the inhibition at 1 µM on mouse 11β-HSD1 was 83.6 ± 1.9%; on human 11β-HSD1 it was 48.9 ± 1.9%.

The values above are taken from PMC9492458, “Development and structure–activity relationships of tanshinones as selective 11β-hydroxysteroid dehydrogenase 1 inhibitors” (Natural Products and Bioprospecting, 2022).
